From patent US11299478B2, “2-cyanopyrimidin-4-yl carbamate or urea derivative or salt thereof, and pharmaceutical composition including same” (HANLIM PHARMACEUTICAL CO., LTD., priority 2018, dated 2022)

Assays:
Type in all cases: biochemical
[1] = target: T1, cathepsin K (Homo sapiens, UniProt P43235); test: Inhibitory activity assay against cathepsin K (enzyme assay); settings: Z-Phe-Arg-AMC 10 μM, enzyme 1 nM, pH 5.5, 30 minutes
T1 sequence (P43235 115-329): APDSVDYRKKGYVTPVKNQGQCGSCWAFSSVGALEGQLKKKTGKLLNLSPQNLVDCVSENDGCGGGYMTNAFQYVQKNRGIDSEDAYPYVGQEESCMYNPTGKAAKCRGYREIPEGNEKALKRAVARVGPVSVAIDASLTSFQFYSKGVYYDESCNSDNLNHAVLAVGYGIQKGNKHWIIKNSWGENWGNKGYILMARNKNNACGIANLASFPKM
Method: In order to measure the enzyme activity of cathepsin K, a buffer solution (pH 5.5) consisting of 50 mM 2-(N-morpholino)ethanesulfonic acid (MES), 2 mM dithiothreitol (DTT), 2.5 mM ethylenediaminetetraacetic acid (EDTA), 0.01% Triton X-100, and 10% dimethyl sulfoxide (DMSO) was prepared. The substrate, the test material, and the enzyme were mixed in the buffer solution in a predetermined concentration. The Z-Phe-Arg-AMC substrate was used in the final concentration of 10 μM. The test material was used in the final concentrations of 10.0 μM, 3.33 μM, 1.11 μM, 0.370 μM, 0.123 μM, 0.0412 μM, 0.0137 μM, 0.00457 μM, 0.00152 μM, and 0.000508 μM, respectively. The cathepsin K enzyme was used in the final concentration of 1 nM. The final volume of the enzyme reaction solution was 10 μL. After reacting the mixture of substrate, test material, and enzyme for 30 minutes, the enzyme activity was measured with the Synergy Neo (Biotek) microplate reader at an absorption wavelength of 355 nm and an emission wavelength of 460 nm. IC50 values were determined using 4-parameter logistic curve fit program of GraphPad Prism.

[2] = target: cathepsin S (Homo sapiens, UniProt P25774); test: Inhibitory activity assay against cathepsin S (enzyme assay); settings: Z-Phe-Arg-AMC 70 μM, enzyme 3 nM, pH 6.5, 45 minutes
cathepsin S, sequence (P25774 115-331, species assumed): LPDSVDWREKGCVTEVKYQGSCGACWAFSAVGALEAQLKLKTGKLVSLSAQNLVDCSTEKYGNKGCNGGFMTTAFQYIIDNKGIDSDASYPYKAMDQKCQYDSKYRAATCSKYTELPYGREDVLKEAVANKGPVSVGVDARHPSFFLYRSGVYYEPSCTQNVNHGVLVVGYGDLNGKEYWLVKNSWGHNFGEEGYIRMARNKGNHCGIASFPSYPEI
Method: In order to measure the enzyme activity of cathepsin S, a buffer solution (pH 6.5) consisting of 50 mM MES, 2.5 mM DTT, 1.0 mM EDTA, 0.001% bovine serum albumin (BSA), and 10% DMSO was prepared. The substrate, the test material, and the enzyme were mixed in the buffer solution in a predetermined concentration. The Z-Phe-Arg-AMC substrate was used in the final concentration of 70 μM. The test material was used in the final concentrations of 10.0 μM, 3.33 μM, 1.11 μM, 0.370 μM, 0.123 μM, 0.0412 μM, 0.0137 μM, 0.00457 μM, 0.00152 μM, and 0.000508 μM, respectively. The cathepsin S enzyme was used in the final concentration of 3 nM. The final volume of the enzyme reaction solution was 10 μL.
After reacting the mixture of substrate, test material, and enzyme for 45 minutes, the enzyme activity was measured with the EnVision (Perkin Elmer) microplate reader at an absorption wavelength of 340 nm and an emission wavelength of 460 nm. IC50 values were determined using 4-parameter logistic curve fit program of GraphPad Prism.

[3] = target: cathepsin B (Homo sapiens, UniProt P07858); test: Inhibitory activity assay against cathepsin B (enzyme assay); settings: Z-Arg-Arg-AMC 40 μM, enzyme 1 nM, pH 6.0, 90 minutes
Method: In order to measure the enzyme activity of cathepsin B, a buffer solution (pH 6.0) consisting of 50 mM MES, 5 mM DTT, 2.5 mM EDTA, 0.005% Polysorbate 20, and 10% DMSO was prepared. The substrate, the test material, and the enzyme were mixed in the buffer solution in a predetermined concentration. The Z-Arg-Arg-AMC substrate was used in the final concentration of 40 μM. The test material was used in the final concentrations of 10.0 μM, 3.33 μM, 1.11 μM, 0.370 μM, 0.123 μM, 0.0412 μM, 0.0137 μM, 0.00457 μM, 0.00152 μM, and 0.000508 μM, respectively. The cathepsin B enzyme was used in the final concentration of 1 nM. The final volume of the enzyme reaction solution was 10 μL. After reacting the mixture of substrate, test material, and enzyme for 90 minutes, the enzyme activity was measured with the EnVision (Perkin Elmer) microplate reader at an absorption wavelength of 340 nm and an emission wavelength of 460 nm. IC50 values were determined using 4-parameter logistic curve fit program of GraphPad Prism.

[4] = target: cathepsin L (Homo sapiens, UniProt P07711); test: Inhibitory activity assay against cathepsin L (enzyme assay); settings: Z-Phe-Arg-AMC 2 μM, enzyme 3 nM, pH 5.5, 30 minutes
cathepsin L, sequence (P07711 114-333, species assumed): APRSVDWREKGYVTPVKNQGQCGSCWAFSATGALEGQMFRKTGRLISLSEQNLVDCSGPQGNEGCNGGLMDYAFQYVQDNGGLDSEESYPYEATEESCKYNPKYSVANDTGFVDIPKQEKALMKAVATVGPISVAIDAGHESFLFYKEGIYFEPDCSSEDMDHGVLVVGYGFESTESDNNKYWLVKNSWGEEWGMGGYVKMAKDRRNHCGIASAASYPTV
Method: In order to measure the enzyme activity of cathepsin L, a buffer solution (pH 5.5) consisting of 50 mM MES, 2.5 mM DTT, 2.5 mM EDTA, 0.005% Polysorbate 20, and 10% DMSO was prepared. The substrate, the test material, and the enzyme were mixed in the buffer solution in a predetermined concentration. The Z-Phe-Arg-AMC substrate was used in the final concentration of 2 μM. The test material was used in the final concentrations of 10.0 μM, 3.33 μM, 1.11 μM, 0.370 μM, 0.123 μM, 0.0412 μM, 0.0137 μM, 0.00457 μM, 0.00152 μM, and 0.000508 μM, respectively. The cathepsin L enzyme was used in the final concentration of 3 nM. The final volume of the enzyme reaction solution was 10 μL. After reacting the mixture of substrate, test material, and enzyme for 30 minutes, the enzyme activity was measured with the EnVision (Perkin Elmer) microplate reader at an absorption wavelength of 340 nm and an emission wavelength of 460 nm. IC50 values were determined using 4-parameter logistic curve fit program of GraphPad Prism.

| Compound | IC50 [1] | IC50 [2] | IC50 [3] | IC50 [4] |
| --- | --- | --- | --- | --- |
| CN(C(=O)NC1(c2ccnc(C#N)n2)CCCCC1)c1ccc(F)c(C(F)(F)F)c1 [Example 105, 3-(1-(2-cyanopyrimidin-4-yl)cyclohexyl)-1-(4-fluoro-3-(trifluoromethyl)phenyl)-1-methylurea] | 2.1 nM | 3630 nM | > 10000 nM | 2980 nM |
| CS(=O)(=O)c1ccc(-c2ccc(NC(=O)NC3(c4ccnc(C#N)n4)CCCCC3)cc2)cc1 [Example 116, 1-(1-(2-cyanopyrimidin-4-yl)cyclohexyl)-3-(4′-(methylsulfonyl)-[1,1′-biphenyl]-4-yl)urea] | 2.1 nM | > 10000 nM | > 10000 nM | > 10000 nM |
| N#Cc1nccc(C2(NC(=O)OCc3cccc4ccccc34)CCCCC2)n1 [Example 26, naphthalen-1-ylmethyl (1-(2-cyanopyrimidin-4-yl)cyclohexyl)carbamate] | 61.7 nM | > 10000 nM | > 10000 nM | 5950 nM |
| CCN1CCN(c2ccc(NC(=O)NC3(c4ccnc(C#N)n4)CCCCC3)cc2)CC1 [Example 146, 1-(1-(2-cyanopyrimidin-4-yl)cyclohexyl)-3-(4-(4-ethylpiperazin-1-yl)phenyl)urea] | 3.9 nM | > 10000 nM | > 10000 nM | > 10000 nM |
| N#Cc1nccc(C2(NC(=O)Nc3ccc(-c4ccccc4C(F)(F)F)c(C(F)(F)F)c3)CCCCC2)n1 [Example 176, 1-(2,2′-bis(trifluoromethyl)-[1,1′-biphenyl]-4-yl)-3-(1-(2-cyanopyrimidin-4-yl)cyclohexyl)urea] | 122 nM | 5840 nM | > 10000 nM | > 10000 nM |
| CC(C)N1CCN(c2ccc(NC(=O)NC3(c4ccnc(C#N)n4)CCCCC3)cc2)CC1 [Example 142, 1-(1-(2-cyanopyrimidin-4-yl)cyclohexyl)-3-(4-(4-isopropylpiperazin-1-yl)phenyl)urea] | 17.9 nM | > 10000 nM | > 10000 nM | > 10000 nM |
| N#Cc1nccc(C2(NC(=O)Nc3ccc(-c4ccc(F)cc4)cc3)CCCCC2)n1 [Example 121, 1-(1-(2-cyanopyrimidin-4-yl)cyclohexyl)-3-(4′-fluoro-[1,1′-biphenyl]-4-yl)urea] | 17.2 nM | > 10000 nM | > 10000 nM | > 10000 nM |
| N#Cc1nccc(C2(NC(=O)Nc3ccc(Br)c(C(F)(F)F)c3)CCCCC2)n1 [Example 133, 1-(4-bromo-3-(trifluoromethyl)phenyl)-3-(1-(2-cyanopyrimidin-4-yl)cyclohexyl)urea] | 63.7 nM | > 10000 nM | > 10000 nM | > 10000 nM |
| N#Cc1nccc(C2(NC(=O)OCc3ccccc3)CCCCC2)n1 [Example 10, Benzyl (1-(2-cyanopyrimidin-4-yl)cyclohexyl)carbamate] | 5.6 nM | 7010 nM | > 10000 nM | 1180 nM |
| N#Cc1nccc(C2(NC(=O)Nc3cccc(C(F)(F)F)c3)CCCC2)n1 [Example 60, 1-(1-(2-cyanopyrimidin-4-yl)cyclopentyl)-3-(3-(trifluoromethyl)phenyl)urea] | 21.6 nM | > 10000 nM | 8780 nM | > 10000 nM |
| N#Cc1nccc(C2(NC(=O)Nc3ccc(-c4ccc(C(=O)NC5CC5)cc4)cc3)CCCCC2)n1 [Example 149, 4′-(3-(1-(2-cyanopyrimidin-4-yl)cyclohexyl)ureido)-N-cyclopropyl-[1,1′-biphenyl]-4-carboxamide] | 6.4 nM | 7300 nM | > 10000 nM | > 10000 nM |
| Cc1ccc(C)c(NC(=O)NC2(c3ccnc(C#N)n3)CCC(C)(C)CC2)c1 [Example 84, 1-(1-(2-cyanopyrimidin-4-yl)-4,4-dimethylcyclohexyl)-3-(2,5-dimethylphenyl)urea] | 44.3 nM | 1680 nM | > 10000 nM | 3410 nM |
| Cc1ccccc1COC(=O)NC1(c2ccnc(C#N)n2)CCCCC1 [Example 17, 2-methylbenzyl (1-(2-cyanopyrimidin-4-yl)cyclohexyl)carbamate] | 58.4 nM | > 10000 nM | > 10000 nM | 1420 nM |
| N#Cc1nccc(C2(NC(=O)Nc3ccc(-c4ccc(C(=O)NCCc5c[nH]cn5)cc4)cc3)CCCCC2)n1 [Example 184, N-(2-(1H-imidazol-4-yl)ethyl)-4′-(3-(1-(2-cyanopyrimidin-4-yl)cyclohexyl)ureido)-[1,1′-biphenyl]-4-carboxamide] | 0.2 nM | 8050 nM | 2150 nM | 2420 nM |
| N#Cc1nccc(C2(NC(=O)Nc3ccc(-c4ccccc4C(F)(F)F)cc3)CCCCC2)n1 [Example 172, 1-(1-(2-cyanopyrimidin-4-yl)cyclohexyl)-3-(2′-(trifluoromethyl)-[1,1′-biphenyl]-4-yl)urea] | 108 nM | 8020 nM | > 10000 nM | > 10000 nM |
| Cc1ccccc1CNC(=O)NC1(c2ccnc(C#N)n2)CCCC1 [Example 46, 1-(1-(2-cyanopyrimidin-4-yl)cyclopentyl)-3-(2-methylbenzyl)urea] | 13.2 nM | > 10000 nM | > 10000 nM | 5970 nM |
| CN(C(=O)NC1(c2ccnc(C#N)n2)CCCCC1)c1ccccc1 [Example 104, 3-(1-(2-cyanopyrimidin-4-yl)cyclohexyl)-1-methyl-1-phenylurea] | 12.4 nM | 3540 nM | > 10000 nM | 5590 nM |
| Cc1ccc(NC(=O)NC2(c3ccnc(C#N)n3)CCCC2)cc1C [Example 62, 1-(1-(2-cyanopyrimidin-4-yl)cyclopentyl)-3-(3,4-dimethylphenyl)urea] | 83.7 nM | > 10000 nM | > 10000 nM | > 10000 nM |
| N#Cc1nccc(C2(NC(=O)Nc3ccc(-c4ccc(S(=O)(=O)C(F)(F)F)cc4)c(C(F)(F)F)c3)CCCCC2)n1 [Example 177, 1-(1-(2-cyanopyrimidin-4-yl)cyclohexyl)-3-(2-(trifluoromethyl)-4′-((trifluoromethyl)sulfonyl)-[1,1′-biphenyl]-4-yl)urea] | 205 nM | 6140 nM | > 10000 nM | > 10000 nM |
